From patent US20240067603A1, “CUBANYL BIGUANIDE COMPOUNDS” (REGENTS OF THE UNIVERSITY OF MINNESOTA, priority 2020, published 2024)
Read-outs that look alike come from different tables or passages of the source.

Key:
Vero cells = experiment: Cytotoxicity assay in Vero cells
LR/FR/PR MCF7A1C cells = experiment: Crystal violet cell proliferation assay, LR,FR,PR-MCF7AC1; format: cell-based; conditions: Homo sapiens, read-out: IC50, LR/FR/PR MCF7A1C cells
Method: Cell proliferation assay: The cells mentioned in this study were seeded in 96 wells-plates (2000-4000 cells/well) and treated 24 hours later with DMSO (vehicle control), HCB or HBB drugs at the indicated concentrations. […] The CV stained plates were solubilized in 100 mM sodium citrate in 50% ethanol solution and absorbance of the stain measured at 550 nm using a plate reader. Each data point represents mean±SD, obtained from six wells per treatment performed in biological triplicates.

MCF10A cells = experiment: Crystal violet cell proliferation assay, MCF10A; format: cell-based; conditions: Homo sapiens, MCF-10A, 72 hours
Method: Cell proliferation assay: The cells mentioned in this study were seeded in 96 wells-plates (2000-4000 cells/well) and treated 24 hours later with DMSO (vehicle control), HCB or HBB drugs at the indicated concentrations. 72 hours later, the cells were fixed in situ with 25% (v/v) glutaraldehyde, followed by staining with 0.52% crystal violet (CV) in 25% methanol (Fisher Chemical). The CV stained plates were solubilized in 100 mM sodium citrate in 50% ethanol solution and absorbance of the stain measured at 550 nm using a plate reader. Each data point represents mean±SD, obtained from six wells per treatment performed in biological triplicates. All reagents were from Sigma-Aldrich unless otherwise stated.

SARS-CoV-2 = experiment: microbe, parasite or virus in culture; format: cell-based; conditions: Severe acute respiratory syndrome coronavirus 2, 293T/ACE2, FIG. 12; for IC50: read-out: antiviral IC50; for IC90: read-out: antiviral IC90
mm001 = experiment: Inhibition of mammary carcinoma cell line mm001; format: cell-based, mouse (C57BL/6); conditions: Mus musculus, read-out: IC50 (uM), mm001
Method: 3-(4,5-Dimethylthiazol-2-yl)-2,5-diphenyltetrazolium Bromide (MTT) Cell Proliferation Assay. To cells grown in 96-well-tissue culture plate, 20 μl/well of MTT solution (5 mg/ml in PBS) was added. After 1-2 hours incubation at 37° C., the plate was centrifuged. Supernatant was discarded and 100 μl DMSO was added to dissolve water insoluble formazan, and the absorbance was read at 540 nm with a plate reader.

[1] = Pharmacokinetics in mice plasma (LC-MS/MS); format: in vivo; conditions: for AUC, subcutaneous vs IV, intraperitoneal or oral: FIGS. 14-15; for HL_Lambda_z: mice plasma; for Cmax / Tmax: mouse, plasma
Method: HBB PK method: HBB in mice plasma was determined with an LC-MS/MS method using d5-HBB as the internal standard.
Sample preparation: HBB in 150 μL mice plasma was extracted by addition of 300 μL acetonitrile spiked with d5-HBB internal standard (0.5 ug/ml). The extraction mixture was centrifuged at 12,000×g for 5 minutes and 150 μL of supernatant was saved for LC-MS/MS analysis.
(§1) LC-MS/MS method: A Quattro Ultima mass spectrometer (Waters, Milford, MA) equipped with an Acquity UPLC (Waters, Milford, MA) and interfaced through an MassLynx software (Waters, Milford, MA) was used. HBB and d5-HBB were resolved at base line with a Zorbax Eclipse XDG-C18 column (4.6×50 mm, 1.8 micron) (Agilent, Santa Clara, CA). Mobile phases were A: water (0.1% formic acid) and B: acetonitrile (0.1% formic acid). The flow rate was 250 μL/min. Elution gradient was as follow: 0-5 min, 90% A and 10% B; 5 min, 10% A and 90% B; 5.25 min, 90% A and 10% B; 10 min, 90% A and 10% B. At positive mode, ion transition for HBB 276.01 mz to 91.02 mz and d5-HBB 281.09 to 96.06 were monitored.
Quantification: Quantitation was carried out by the MassLynx software based on an HBB standard curve (1.5-1500 ng/ml). Per FDA bioanalytical method validation guideline, standards and plasma samples were bracketed with QC samples to ensure accuracy and precision of the measurement.
HCB PK method: HCB in mouse plasma was determined with an LC-MS/MS method using d5-HBB as the internal standard.
Sample preparation: HCB in 150 μL mice plasma was extracted by addition of 300 μL acetonitrile spiked with d5-HBB internal standard (0.5 ug/ml). The extraction mixture was centrifuged at 12,000×g for 5 minutes and 150 μL of supernatant was saved for LC-MS/MS analysis.
as §1, with “used. Neo biguanide” for “used. HBB”, “Eclipse XDB-C18 Rapid Resolution HT (P.M. 927975-902)” for “Eclipse XDG-C18”, “for” for “for HBB 276.01 mz to 91.02 mz and”, “96.06 and corresponding neo biguanide parent daughter ion transition” for “96.06”
Quantification: Quantitation was carried out by the MassLynx software based on an HCB standard curve (1.5-1500 ng/ml). Per FDA bioanalytical method validation guideline, standards and plasma samples were bracketed with QC samples to ensure accuracy and precision of the measurement.

[2] = Cytotoxicity assay in 293T/ACE2 cells; conditions: human, HEK293T/17 cells expressing human ACE2
[3] = tested on: 293T human embryonic kidney cells over-expressing the ACE2 receptor; experiment: Cytotoxicity assay in 293T/ACE2 cells; conditions: 293T/ACE2 cytotoxicity

For `CCCCCCNC(=N)NC(=N)NCc1ccccc1` [HBB, N1-hexyl-N5-benzyl-biguanide], which CC10 (Vero cells) is on record?
The CC10 was 0.091 µM.

What about the IC50 (LR/FR/PR MCF7A1C cells; 72 h) of the same compound?
The IC50 was 4.9 µM.

What about the IC50 (MCF10A cells) of the same compound?
The IC50 was 5.2 µM.

What about the IC50 (SARS-CoV-2) of the same compound?
The IC50 was 820 nM.

And the IC90 (SARS-CoV-2)?
The IC90 was 11.3 µM.

And the IC50 (mm001)?
The IC50 was 26.8 µM.

And the “AUC, subcutaneous vs IV, intraperitoneal or oral” value [1]?
Its value is “better AUC”.

And the “Cl_F_obs” value ([1]; IP)?
The value was 88.25 mL/min/kg.

What about the “Vz_F_obs” value ([1]; IP) of the same compound?
Its value is 62842 mL/kg.

What about the “HL_Lambda_z” value ([1]; IP) of the same compound?
Its value is 8.23 h.

What about the “Cl_obs” value ([1]; IV) of the same compound?
Its value is 50.65 mL/min/kg.

What about the “Vz_obs” value ([1]; IV) of the same compound?
Its value is 32933 mL/kg.

And the “HL_Lambda_z” value ([1]; IV)?
Its value is 7.51 h.

What about the “Cl_F_obs” value ([1]; SC) of the same compound?
Its value is 32.89 mL/min/kg.

What about the “Vz_F_obs” value ([1]; SC) of the same compound?
The value was 23131 mL/kg.

And the “fold greater AUC, subcutaneous than ip” value ([1]; SC vs ip)?
Its value is 2.6 fold.

And the “HL_Lambda_z” value ([1]; SC)?
The value was 8.13 h.

What about the Cmax ([1]; ip) of the same compound?
The Cmax was 1840 ng/mL.

And the Tmax ([1]; ip)?
The Tmax was 1 min.

And the Cmax ([1]; iv)?
The Cmax was 20100 ng/mL.

What about the Tmax ([1]; iv) of the same compound?
The Tmax was 1 min.

And the Cmax ([1]; sc)?
The Cmax was 1860 ng/mL.

What about the Tmax ([1]; sc) of the same compound?
The Tmax was 5 min.

What about the CC50 [2] of the same compound?
Its CC50 is 26 µM.

What about the CC10 [3] of the same compound?
The CC10 was 1.5 µM.

Which results are given for `CCCCCCNC(=N)NC(=N)NCC12C3C4C5C3C1C5C42` (stereo not shown) [HCB, Hexyl Cubanomethyl Biguanide]?
CC10 (Vero cells): 0.201 µM; IC50 (LR/FR/PR MCF7A1C cells; letrozole-, fulvestrant- and palbociclib-resistant, 72 hours, crystal violet): 1.7 µM; IC50 (MCF10A cells): 2.5 µM; IC50 (SARS-CoV-2): 700 nM; IC90 (SARS-CoV-2): 4.8 µM; IC50 (mm001; Table 5, mm001, C57BL/6, Basal): 12.1 µM; AUC, subcutaneous vs IV, intraperitoneal or oral [1]: better AUC; CC50 [2]: 7.2 µM; CC10 [3]: 1.04 µM
